Patent publication US20070155693A1, “Inhibitor of cancer bone metastasis” (ORIENT CANCER THERAPY CO., LTD., priority 2004, published 2007)

Legend:
bone metastasis pain = assay: Clinical cases: pain from bone metastasis; assay type: in vivo, human; conditions: for generalized bone pain: morphine 240 mg/day, Leuplin hormone therapy, Iressa 250 mg/day
Method: (§1) A prostate cancer patient having been diagnosed as ischial bone metastasis received the hormone therapy of Casodex and Leuplin. NITC was started on Jun. 11, 200X. […] On Sep. 18, 200X, severe low back pain and left hip joint and hip (ischial bone metastasis) pains were appeared, so morphine (MS Contin 40 mg/day) was used. From Oct. 29, 200X, Iressa 1T (250 mg/day) was started to use. Two months after the administration of Iressa, as the pains in low back, left hip joint and hip were alleviated, the administration of MS Contin decreased to 20 mg/day.
(§2) From Jul. […] From Aug. 17, 200X, Iressa 1T (250 mg/day) was initiated. […] Currently, Iressa is only temporarily and orally administered as a painkiller, when pain appears.

[1] = tested on: non-small cell lung cancer and prostate cancer; conditions: clinical data; cited from earlier work
prostate cancer = assay: Clinical cases: prostate cancer markers PSA and PAP; assay type: in vivo, human; conditions: Example 1, prostate cancer and ischial bone metastasis; Iressa added to NITC
Method: Abbreviations expressed were based on each general expression way.
as §1, §2

bone metastasis = assay: Clinical cases: bone metastasis marker 1CTP; assay type: in vivo, human; conditions: Example 1, prostate cancer and ischial bone metastasis; Iressa added to NITC
Text: Effects of inhibiting bone metastasis were confirmed by the variation of 1CTP which is a bone metastasis marker. 1CTP has been practically used as a specific marker for bone resorption and there is, for example, 1CTP kit supplied by Orion (Clin. Chem. 39: 635-640, 1993). The kit uses a decalcified human thigh bone, which is degraded and purified in vitro by a purified bacterial collagenase, as an antigen (1CTP), to immunize a rabbit to produce an antibody, and the antigen is labeled with ^125I to make competitive radioimmunoassay (RIA). Its measuring sensitivity is 0.5 ng/ml or less and the measurement is possible to at least 50 ng/ml. Further, the mean value in blood level of 287 cases from 25-year old to 72-year old is 3.00±1.12 ng/ml (average±S.D.). 1CTP in blood has shown abnormal values in various metabolic bone diseases such as bone metastasis and hyperparathyroidism by now, and further has also been recognized to correlate with therapeutic process. The kit to measure 1CTP is a known clinical diagnosis one, and there is a RIA kit, pyridinoline 1CTP “Chugai” manufactured by Chugai Diagnostics Science Co., Ltd. Specifically, it is a radioimmunoassay reagent using ^125I as a label. However, other well known reagents such as enzyme immunoassay reagent using an enzyme labeling and fluorescence immunoassay reagent using a fluorescent substance can of course be applied. […]

SMILES	generalized bone pain (bone metastasis pain; Example 2)	CR (complete remission) [1]	PSA and PAP (prostate cancer markers) (prostate cancer)	1CTP (bone metastasis marker) (bone metastasis)	pains in low back, left hip joint and hip (bone metastasis pain; Example 1, two months after the administration of Iressa 250 mg/day)	effect as painkiller compared with morphine (bone metastasis pain; Example 2)	pains after dose reduction (bone metastasis pain; Example 2, Iressa decreased to 250 mg/alternate day and 250 mg/three days)
CN1CC[C@]23c4c5ccc(O)c4O[C@H]2[C@@H](O)C=C[C@H]3[C@H]1C5 [morphine]	could not alleviate the pain						
COc1cc2ncnc(Nc3ccc(F)c(Cl)c3)c2cc1OCCCN1CCOCC1 [Iressa]	alleviated significantly	almost nothing	kept decreasing significantly	the increase of 1CTP also terminated, showing a tendency to decrease	alleviated	stronger effect than morphine	pains disappeared
CCNC(=O)[C@@H]1CCCN1C(=O)[C@H](CCCNC(=N)N)NC(=O)[C@H](CC(C)C)NC(=O)[C@@H](CC(C)C)NC(=O)[C@H](Cc1ccc(O)cc1)NC(=O)[C@H](CO)NC(=O)[C@H](Cc1c[nH]c2ccccc12)NC(=O)[C@H](Cc1c[nH]cn1)NC(=O)[C@@H]1CCC(=O)N1 [Leuplin]	the pain was not weakened						
